Assay results reported in the supplement of paper PMC10307832.

Columns and labels:
Assay in all cases: relative viability (nuclei count vs DMSO), 5 days (fraction); higher = more cells survive
[1] = compound: COC1=CC=C(C=C1)CN2C=CC3=C2C=C(C=C3)C(=O)NO + CS(=O)(=O)CCNCc1ccc(-c2ccc3ncnc(Nc4ccc(OCc5cccc(F)c5)c(Cl)c4)c3c2)o1 [Lapatinib] (partner 2 µM)
Method in brief: (§1)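 Relative viability was taken as the ratio of nuclei in treated wells to nuclei in vehicle wells. Lung cancer cell lines in 1536-well plates received compounds by pin tool one day after seeding, either one drug alone or a fixed anchor-drug dose plus five library-drug doses (not always all listed) in √10 steps. Nuclei were counted on 4× images after 5 days of treatment, and values are medians of duplicate plates.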

[2] = compound: COC1=CC=C(C=C1)CN2C=CC3=C2C=C(C=C3)C(=O)NO + CS(=O)(=O)N1CCN(Cc2cc3nc(-c4cccc5[nH]ncc45)nc(N4CCOCC4)c3s2)CC1 [Pictilisib] (partner 1 µM)
Method in brief: as §1

[3] = compound: C[C@]1(c2nc3c(C(N)=O)cccc3[nH]2)CCCN1 [Veliparib] + CS(=O)(=O)CCNCc1ccc(-c2ccc3ncnc(Nc4ccc(OCc5cccc(F)c5)c(Cl)c4)c3c2)o1 [Lapatinib] (partner 2 µM)
Method in brief: as §1

[4] = compound: C[C@]1(c2nc3c(C(N)=O)cccc3[nH]2)CCCN1 [Veliparib] + Cc1nc(NC(=O)N2CCC[C@H]2C(N)=O)sc1-c1ccnc(C(C)(C)C(F)(F)F)c1 [Alpelisib] (partner 2 µM)
Method in brief: as §1

NCI-H596 showed a relative viability ([1]; first compound 0.08 µM) of 0.976, a relative viability ([1]; first compound 0.253 µM) of 1.01 and a relative viability ([1]; first compound 0.8 µM) of 1.25. The relative viability ([1]; first compound 2.53 µM) was 1.11, the relative viability ([1]; first compound 8 µM) was 0.999 and the relative viability ([2]; first compound 0.08 µM) was 0.349. The relative viability ([2]; first compound 0.253 µM) was 0.408, the relative viability ([2]; first compound 0.8 µM) was 0.411 and the relative viability ([2]; first compound 2.53 µM) was 0.468. The relative viability ([2]; first compound 8 µM) was 0.409, the relative viability ([3]; first compound 0.02 µM) was 1.14 and the relative viability ([3]; first compound 0.06325 µM) was 0.902. It also gave a relative viability ([3]; first compound 0.2 µM) of 1.01, a relative viability ([3]; first compound 0.6325 µM) of 1.19 and a relative viability ([3]; first compound 2 µM) of 1.01. For the same cell line, the relative viability ([4]; first compound 0.02 µM) was 0.516, the relative viability ([4]; first compound 0.06325 µM) was 0.497 and the relative viability ([4]; first compound 0.2 µM) was 0.541. It also gave a relative viability ([4]; first compound 0.6325 µM) of 0.472 and a relative viability ([4]; first compound 2 µM) of 0.526.

In the case of LXF-289, the relative viability ([1]; first compound 0.08 µM) is reported as 0.301, the relative viability ([1]; first compound 0.253 µM) is reported as 0.921 and the relative viability ([1]; first compound 0.8 µM) is reported as 0.878. The relative viability ([1]; first compound 2.53 µM) was 0.926, the relative viability ([1]; first compound 8 µM) was 0.883 and the relative viability ([2]; first compound 0.08 µM) was 0.309. It also gave a relative viability ([2]; first compound 0.253 µM) of 0.779, a relative viability ([2]; first compound 0.8 µM) of 0.754 and a relative viability ([2]; first compound 2.53 µM) of 0.799. For the same cell line, the relative viability ([2]; first compound 8 µM) was 0.723, the relative viability ([3]; first compound 0.02 µM) was 0.903 and the relative viability ([3]; first compound 0.06325 µM) was 0.878. The relative viability ([3]; first compound 0.2 µM) was 0.897, the relative viability ([3]; first compound 0.6325 µM) was 0.904 and the relative viability ([3]; first compound 2 µM) was 0.928. It also gave a relative viability ([4]; first compound 0.02 µM) of 1.02, a relative viability ([4]; first compound 0.06325 µM) of 1.02 and a relative viability ([4]; first compound 0.2 µM) of 0.997. The relative viability ([4]; first compound 0.6325 µM) was 1.01 and the relative viability ([4]; first compound 2 µM) was 1.06.

In the case of Calu-6, the relative viability ([1]; first compound 0.08 µM) is reported as 0.432, the relative viability ([1]; first compound 0.253 µM) is reported as 1.05 and the relative viability ([1]; first compound 0.8 µM) is reported as 1.06. For the same cell line, the relative viability ([1]; first compound 2.53 µM) was 1.1, the relative viability ([1]; first compound 8 µM) was 1.03 and the relative viability ([2]; first compound 0.08 µM) was 0.426. For the same cell line, the relative viability ([2]; first compound 0.253 µM) was 0.946, the relative viability ([2]; first compound 0.8 µM) was 0.981 and the relative viability ([2]; first compound 2.53 µM) was 0.969. It also gave a relative viability ([2]; first compound 8 µM) of 0.826, a relative viability ([3]; first compound 0.02 µM) of 1.14 and a relative viability ([3]; first compound 0.06325 µM) of 0.985. For the same cell line, the relative viability ([3]; first compound 0.2 µM) was 0.96, the relative viability ([3]; first compound 0.6325 µM) was 0.971 and the relative viability ([3]; first compound 2 µM) was 0.989. The relative viability ([4]; first compound 0.02 µM) was 1.15, the relative viability ([4]; first compound 0.06325 µM) was 0.909 and the relative viability ([4]; first compound 0.2 µM) was 1.01. For the same cell line, the relative viability ([4]; first compound 0.6325 µM) was 0.988 and the relative viability ([4]; first compound 2 µM) was 1.02.

For ABC-1, the relative viability ([1]; first compound 0.08 µM) was 0.618, the relative viability ([1]; first compound 0.253 µM) was 1.13 and the relative viability ([1]; first compound 0.8 µM) was 1.21. For the same cell line, the relative viability ([1]; first compound 2.53 µM) was 1.3, the relative viability ([1]; first compound 8 µM) was 1.13 and the relative viability ([2]; first compound 0.253 µM) was 0.761. The relative viability ([2]; first compound 0.8 µM) was 0.78, the relative viability ([2]; first compound 2.53 µM) was 0.724 and the relative viability ([2]; first compound 8 µM) was 0.662. It also gave a relative viability ([3]; first compound 0.06325 µM) of 1.17, a relative viability ([3]; first compound 0.2 µM) of 1.18 and a relative viability ([3]; first compound 0.6325 µM) of 0.878. For the same cell line, the relative viability ([3]; first compound 2 µM) was 1.1, the relative viability ([4]; first compound 0.06325 µM) was 0.809 and the relative viability ([4]; first compound 0.2 µM) was 1.1. For the same cell line, the relative viability ([4]; first compound 0.6325 µM) was 1.05 and the relative viability ([4]; first compound 2 µM) was 0.894.

Work on NCI-H2087 yielded a relative viability ([1]; first compound 0.08 µM) of 0.522, a relative viability ([1]; first compound 0.253 µM) of 1 and a relative viability ([1]; first compound 0.8 µM) of 1.05. The relative viability ([1]; first compound 2.53 µM) was 1.05, the relative viability ([1]; first compound 8 µM) was 0.807 and the relative viability ([2]; first compound 0.08 µM) was 0.497. The relative viability ([2]; first compound 0.253 µM) was 0.936, the relative viability ([2]; first compound 0.8 µM) was 0.776 and the relative viability ([2]; first compound 2.53 µM) was 0.976. It also gave a relative viability ([2]; first compound 8 µM) of 0.674, a relative viability ([3]; first compound 0.02 µM) of 0.548 and a relative viability ([3]; first compound 0.06325 µM) of 1.02. The relative viability ([3]; first compound 0.2 µM) was 0.913, the relative viability ([3]; first compound 0.6325 µM) was 0.854 and the relative viability ([3]; first compound 2 µM) was 1.32. It also gave a relative viability ([4]; first compound 0.02 µM) of 1.05, a relative viability ([4]; first compound 0.06325 µM) of 1.02 and a relative viability ([4]; first compound 0.2 µM) of 1.09. It also gave a relative viability ([4]; first compound 0.6325 µM) of 1.07 and a relative viability ([4]; first compound 2 µM) of 1.04.

Cell Line NCI-H3122 has a relative viability ([1]; first compound 0.08 µM) of 0.959, a relative viability ([1]; first compound 0.253 µM) of 0.934 and a relative viability ([1]; first compound 0.8 µM) of 1.03. For the same cell line, the relative viability ([1]; first compound 2.53 µM) was 1.04, the relative viability ([1]; first compound 8 µM) was 0.959 and the relative viability ([2]; first compound 0.08 µM) was 0.571. For the same cell line, the relative viability ([2]; first compound 0.253 µM) was 0.629, the relative viability ([2]; first compound 0.8 µM) was 0.652 and the relative viability ([2]; first compound 2.53 µM) was 0.577. It also gave a relative viability ([2]; first compound 8 µM) of 0.518, a relative viability ([3]; first compound 0.02 µM) of 0.931 and a relative viability ([3]; first compound 0.06325 µM) of 1.05. For the same cell line, the relative viability ([3]; first compound 0.2 µM) was 0.995, the relative viability ([3]; first compound 0.6325 µM) was 0.994 and the relative viability ([3]; first compound 2 µM) was 1.07. It also gave a relative viability ([4]; first compound 0.02 µM) of 0.785, a relative viability ([4]; first compound 0.06325 µM) of 0.755 and a relative viability ([4]; first compound 0.2 µM) of 0.768. For the same cell line, the relative viability ([4]; first compound 0.6325 µM) was 0.76 and the relative viability ([4]; first compound 2 µM) was 0.752.
